By Ki is commonly meant a dissociation constant, usually derived from enzyme kinetics or from competition with a known ligand. Read a low Ki as higher affinity.

For one compound, Ki results are on record in ChEMBL document CHEMBL3639183, “Anellated pyridine compounds” (2013).

The structures appear in SMILES notation.

Common to all, as to assay type: cell-based
Test [1] deals with 5-hydroxytryptamine receptor 2A (Homo sapiens, UniProt P28223). As to the kind of experiment: (§1) Radioligand Binding Assay: The ability of the compounds to bind to the 5-HT2A, D3 and D2 receptors was determined using radioligand binding to cloned receptors selectively expressed in HEK-293 EBNA cells.
Chain of 5-hydroxytryptamine receptor 2A (P28223 whole entry): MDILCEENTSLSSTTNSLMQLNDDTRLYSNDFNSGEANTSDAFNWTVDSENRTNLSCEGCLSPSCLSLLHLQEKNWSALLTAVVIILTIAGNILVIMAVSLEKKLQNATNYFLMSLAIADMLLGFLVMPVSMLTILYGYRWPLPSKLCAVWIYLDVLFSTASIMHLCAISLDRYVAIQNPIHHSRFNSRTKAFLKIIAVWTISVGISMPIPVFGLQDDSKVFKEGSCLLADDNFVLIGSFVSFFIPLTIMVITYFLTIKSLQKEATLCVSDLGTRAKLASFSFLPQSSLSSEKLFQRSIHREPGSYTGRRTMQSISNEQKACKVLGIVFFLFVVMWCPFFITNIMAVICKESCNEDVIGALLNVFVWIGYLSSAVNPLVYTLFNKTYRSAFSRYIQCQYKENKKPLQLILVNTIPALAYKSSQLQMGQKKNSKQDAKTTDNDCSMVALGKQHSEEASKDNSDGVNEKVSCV
Another test addresses D(2) dopamine receptor (Homo sapiens, UniProt P14416). Described as §1.
The next test deals with D(3) dopamine receptor (Homo sapiens, UniProt P35462). The description is as §1.
Chain of D(3) dopamine receptor (P35462 whole entry): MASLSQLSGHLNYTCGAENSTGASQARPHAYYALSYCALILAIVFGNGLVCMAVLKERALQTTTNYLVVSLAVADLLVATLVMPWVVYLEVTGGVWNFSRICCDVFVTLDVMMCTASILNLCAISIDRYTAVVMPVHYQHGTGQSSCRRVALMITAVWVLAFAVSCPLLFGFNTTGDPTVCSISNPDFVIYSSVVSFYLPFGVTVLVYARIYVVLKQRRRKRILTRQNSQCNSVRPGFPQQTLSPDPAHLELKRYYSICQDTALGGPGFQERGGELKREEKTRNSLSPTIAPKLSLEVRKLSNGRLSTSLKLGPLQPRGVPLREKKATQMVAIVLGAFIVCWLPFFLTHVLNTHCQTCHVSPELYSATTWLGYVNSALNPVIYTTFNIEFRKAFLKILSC

Chain of D(2) dopamine receptor (P14416 whole entry): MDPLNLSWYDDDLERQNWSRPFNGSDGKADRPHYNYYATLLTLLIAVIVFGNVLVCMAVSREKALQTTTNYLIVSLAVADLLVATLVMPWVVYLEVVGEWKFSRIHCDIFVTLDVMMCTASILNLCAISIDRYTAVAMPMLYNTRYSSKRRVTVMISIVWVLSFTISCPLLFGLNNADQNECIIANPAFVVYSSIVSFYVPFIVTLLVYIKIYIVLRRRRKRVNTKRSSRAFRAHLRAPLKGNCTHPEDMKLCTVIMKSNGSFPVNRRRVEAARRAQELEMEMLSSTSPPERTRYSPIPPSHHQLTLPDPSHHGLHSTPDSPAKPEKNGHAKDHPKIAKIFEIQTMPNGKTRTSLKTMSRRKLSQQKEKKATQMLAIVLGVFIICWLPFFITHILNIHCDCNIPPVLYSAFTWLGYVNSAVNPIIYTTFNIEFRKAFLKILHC

As for `CC(C)(O)C(=O)N[C@H]1CC[C@H](CCN2CCN(c3nccc4c3CCO4)CC2)CC1`, the inhibitory constant (Ki) is 7.82 nM in test [1], 1260 nM on D(2) dopamine receptor and 195 nM on D(3) dopamine receptor.
